# System: fibroblasts separated from skin tissue
# Test: Collagen concentration in fibroblast culture supernatant (human collagen ELISA quantitative kit)
# Assay type: cell-based
# Settings: vitamin C (0.01-1 mM) added to the culture medium of skin fibroblasts; unit not given
# Experimental: Culture of the fibroblasts separated from skin tissue was carried out according to a well-known method (R. I. Freshney, Culture of Animal Cells: A MANUAL OF BASIC TECHNIQUE (Wiley-Liss, Inc. 2000)). Specifically, the fibroblasts separated from skin tissue were being subcultured, subsequently followed by expansion culture, to be end up to a few T-225 flasks in the end. Vitamin C in the range of 0.01-1 mM was added to the culture medium three days before the end of culture (scheduled day of injection). Furthermore, the culture medium was replaced with a 2-5% self-serum addition culture medium with no vitamin C added. The cultured fibroblasts were exfoliated from a culture vessel with a dispersion liquid with no EDTA solution or enzyme, and the cells were separated from the dispersion liquid by centrifugation. Then, washing in a physiological salt solution were performed more than three times. The collagen concentration contained in the culture supernatant of the fibroblasts cultured in the culture medium with vitamin C added of Example 1 and the culture supernatant with no vitamin C added by the human collagen ELISA quantitative kit (AC Biotechnologies).
smiles,measurement,value
O=C1O[C@H]([C@@H](O)CO)C(O)=C1O [vitamin C],collagen concentration contained in the culture supernatant,11.3
